The source of these data is patent publication US11124510B2, “Alkyl chain modified imidazoquinoline TLR7/8 agonist compounds and uses thereof” (Dynavax Technologies Corporation, priority 2017, dated 2021).

For test [1], the system named is CT26 colon carcinoma. The experiment in a line: Anti-tumor efficacy, repeated intratumoral dosing in CT26 colon carcinoma-bearing wild-type mice. The class given is in vivo. Particulars: 0.5-20 μg in 95% sesame oil/5% ethanol. As to the method: The effect of repeated weekly doses of intratumorally delivered pharmaceutical compositions comprised of Compound No. 63-10, 63-18, or 63-33 formulated in 95% sesame oil/5% ethanol (v/v) on tumor growth inhibition was assessed in syngeneic CT26 colon carcinoma-bearing Balb/c mice. All in vivo procedures were conducted in accordance with approved Institutional Animal Care and Use Committee (IACUC) protocols. The animals were housed in a facility that is accredited by the Association for Accreditation and Laboratory Animal Care (AALAC, Frederick, Md.). Wild-type female Balb/c mice (15-20 gm) were obtained from Envigo (Hayward, Calif.) and acclimated for 2-3 days prior to use.
The pharmaceutical compositions were made with the three compounds at final concentrations of 5, 50, and 200 μg/mL in a manner similar to that described in Example B2-1. […] On day 0, mice were anesthetized with 1% isoflurane and 80,000 CT26 tumor cells in 200 uL of RMPI-1640 culture media plus 2.5% fetal bovine serum were injected subcutaneously in the right flank. Tumors were allowed to grow until they were ˜35 mm^3, at which point animals were assigned to groups to begin treatment. Mice were injected weekly for 4 weeks intratumorally with 100 uL of a pharmaceutical composition comprising 20, 5, or 0.5 μgs of Compound No. 63-10, or 20 or 5 μgs of Compound Nos. 63-18, or 63-33 formulated in 95% sesame oil/5% ethanol (v/v), or a vehicle control, twice weekly for 3 weeks (experimental days 9, 12, 16, 19, 23, and 26). The TLR9 CpG agonist was injected intratumorally with 100 μL of a pharmaceutical composition comprised of 50 μgs of compound formulated in phosphate buffered saline on the same dosing schedule. Tumor sizes were measured twice weekly from days 8 through day 30 with calipers, with tumor volumes calculated using the formula: length, multiplied by width, multiplied by width, divided by 2.

Test [2] concerns CT26 colon carcinoma. The experiment in a line: Anti-tumor efficacy of squalene oil-in-water nanoemulsion with or without AH-1 peptide in two flank CT26 colon carcinoma-bearing mice. The test is classed as in vivo. Here is the method: The effect of repeated weekly doses of intratumorally-delivered pharmaceutical compositions comprised of Compound No. 63-10 formulated in a squalene-based oil-in-water nanoemulsion that was co-formulated with the CT-26 tumor associated AH-1 […] peptide (immunodominant epitope sequence from the endogenous retroviral gene product gp70; see e.g., Rice J, Buchan S and Stevenson F 2002 J Immunol 169:3908-3913) on injected and distal tumor growth inhibition was assessed in CT26 colon carcinoma-bearing Balb/c mice bearing tumors in 2 flanks. All in vivo procedures were conducted in accordance with approved IACUC protocols. The animals were housed in a facility that is accredited by the AALAC. Wild-type female Balb/c mice (15-20 g) were obtained from Envigo (Hayward, Calif.) and acclimated for 2-3 days prior to use.
Pharmaceutical compositions comprised of squalene-based oil-in-water nanoemulsions were made generally as described in Example B2-2. […] Right (injected) and left (distal) tumor volumes were then measured twice weekly from days 8 through day 30 with calipers, with tumor volumes calculated using the formula: length, multiplied by width, multiplied by width, divided by 2.

For a further test, the target named is TLR7 (Homo sapiens (Human), UniProt Q9NYK1). The experiment in a line: TLR7 agonist bioactivity: induction of IFNα protein in pDC-enriched PBMC cultures (ELISA, 24 h). The class given is cell-based. Particulars: less potent than IMDQ. Here is the method:
Plasmacytoid dendritic cell (pDC)—enriched peripheral blood mononuclear cells (PBMCs) were prepared from the blood of a series of human donors (3-5 donors/experiment). PBMCs were isolated using Ficoll-Paque Premium® (GE Healthcare, Chicago Ill.) using methods well known to those in the art. pDCs were magnetically isolated from the total recovered PBMC population using CD304 (BDCA-4/Neuropilin-1) microbeads (Miltenyi Biotec, San Diego Calif.), according to the manufacturer's instructions. Isolated pDCs were then added back to between 1 and 2×10^8 of the corresponding donor's PBMCs for relative enrichment of this cell type. […] Culture supernatants were collected and interferon-alpha (IFNα) protein levels were measured by ELISA (MabTech, Cincinnati Ohio), according to the manufacturer's instructions.
(An ELISA detects its analyte on a solid surface through an enzyme-linked reagent.)

The next test deals with TLR8 (Homo sapiens (Human), UniProt Q9NR97). The experiment in a line: TLR8 agonist bioactivity: induction of TNFα protein in monocyte cultures (ELISA, 24 h). The class given is cell-based. As to the method: Monocytes were magnetically isolated from PBMCs, prepared as described above, following labeling with CD14 microbeads (Miltenyi Biotec, San Diego Calif.), according to the manufacturer's instructions. […] Culture supernatants were collected and tumor necrosis factor alpha (TNFα) protein levels were measured by ELISA (MabTech, Cincinnati Ohio), according to the manufacturer's instructions.
Chain of TLR8 (Q9NR97 27-1041): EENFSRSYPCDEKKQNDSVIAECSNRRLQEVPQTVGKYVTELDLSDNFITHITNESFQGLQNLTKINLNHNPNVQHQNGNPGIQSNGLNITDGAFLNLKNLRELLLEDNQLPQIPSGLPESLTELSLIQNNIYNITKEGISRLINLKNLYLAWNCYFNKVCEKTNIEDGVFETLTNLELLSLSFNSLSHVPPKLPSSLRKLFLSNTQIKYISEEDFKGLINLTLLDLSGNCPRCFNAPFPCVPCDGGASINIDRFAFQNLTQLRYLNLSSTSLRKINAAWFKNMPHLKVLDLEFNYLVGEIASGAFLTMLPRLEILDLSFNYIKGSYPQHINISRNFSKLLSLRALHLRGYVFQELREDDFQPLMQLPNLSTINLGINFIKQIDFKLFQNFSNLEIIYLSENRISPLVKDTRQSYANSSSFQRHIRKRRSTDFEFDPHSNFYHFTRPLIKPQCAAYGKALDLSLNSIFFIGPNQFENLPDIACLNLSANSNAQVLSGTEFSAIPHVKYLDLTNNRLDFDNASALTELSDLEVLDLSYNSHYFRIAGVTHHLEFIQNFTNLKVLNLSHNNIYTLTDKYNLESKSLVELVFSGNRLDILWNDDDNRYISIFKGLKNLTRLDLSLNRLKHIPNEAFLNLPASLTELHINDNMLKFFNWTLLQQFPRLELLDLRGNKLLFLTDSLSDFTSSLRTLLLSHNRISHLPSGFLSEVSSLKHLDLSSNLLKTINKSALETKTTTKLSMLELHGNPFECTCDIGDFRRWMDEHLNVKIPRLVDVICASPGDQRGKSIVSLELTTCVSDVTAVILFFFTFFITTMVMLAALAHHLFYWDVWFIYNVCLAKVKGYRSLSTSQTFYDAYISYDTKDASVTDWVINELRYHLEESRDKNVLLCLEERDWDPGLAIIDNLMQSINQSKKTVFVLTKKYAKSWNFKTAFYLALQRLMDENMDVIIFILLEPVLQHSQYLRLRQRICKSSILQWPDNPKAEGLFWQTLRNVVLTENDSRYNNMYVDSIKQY

Chain of TLR7 (Q9NYK1 27-1049): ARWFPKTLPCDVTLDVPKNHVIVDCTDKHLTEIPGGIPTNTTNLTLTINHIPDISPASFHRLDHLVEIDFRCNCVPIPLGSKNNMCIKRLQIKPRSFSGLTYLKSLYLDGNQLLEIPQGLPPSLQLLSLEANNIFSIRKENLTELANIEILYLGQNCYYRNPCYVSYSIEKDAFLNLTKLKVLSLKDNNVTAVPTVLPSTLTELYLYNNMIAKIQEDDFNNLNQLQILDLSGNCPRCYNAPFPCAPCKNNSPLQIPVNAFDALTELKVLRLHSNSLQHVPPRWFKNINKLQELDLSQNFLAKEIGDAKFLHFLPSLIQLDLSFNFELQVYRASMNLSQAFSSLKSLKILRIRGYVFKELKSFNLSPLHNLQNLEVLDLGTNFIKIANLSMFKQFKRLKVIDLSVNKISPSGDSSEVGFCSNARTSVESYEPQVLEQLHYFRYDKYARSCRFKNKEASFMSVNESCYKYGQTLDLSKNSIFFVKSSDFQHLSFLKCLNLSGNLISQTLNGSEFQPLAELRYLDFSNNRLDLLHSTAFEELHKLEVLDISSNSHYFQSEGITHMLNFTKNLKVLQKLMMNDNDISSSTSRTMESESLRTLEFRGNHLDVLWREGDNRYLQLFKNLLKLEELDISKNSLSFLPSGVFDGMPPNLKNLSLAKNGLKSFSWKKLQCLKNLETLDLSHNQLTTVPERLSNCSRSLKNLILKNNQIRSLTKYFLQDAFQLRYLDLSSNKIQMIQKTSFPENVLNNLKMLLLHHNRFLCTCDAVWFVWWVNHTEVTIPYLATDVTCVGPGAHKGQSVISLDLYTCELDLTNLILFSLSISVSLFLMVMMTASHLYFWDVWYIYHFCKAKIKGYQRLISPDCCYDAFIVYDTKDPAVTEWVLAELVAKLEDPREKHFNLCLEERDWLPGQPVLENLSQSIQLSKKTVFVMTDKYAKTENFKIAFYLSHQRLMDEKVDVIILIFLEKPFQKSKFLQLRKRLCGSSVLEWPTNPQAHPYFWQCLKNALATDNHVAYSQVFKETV

Regarding `CCCCCCCCCCCCCC(=O)NCc1ccc(Cn2c(CCCC)nc3c(N)nc4ccccc4c32)cc1` [Compound No. 63-10, N-(4-((4-amino-2-butyl-1H-imidazo[4,5-c]quinolin-1-yl)methyl)benzyl)tetradecanamide], the “CT26 tumor growth control compared to the vehicle control” value in the test with CT26 colon carcinoma [1] is listed as “robust CT26 tumor growth control”. In the test with CT26 colon carcinoma [2] (day 23, 50 ng intratumoral days 8, 12, 16, 20), the “tumor growth inhibition in the distal (left) tumor compared to the nanoemulsion vehicle control” value was “not significantly different from the vehicle control”. Besides, the “tumor growth inhibition in the injected (right) tumor compared to the nanoemulsion vehicle control” value in the test on CT26 colon carcinoma [2] (day 27, 50 ng intratumoral days 8, 12, 16, 20) is reported as “not significantly different from the vehicle control”. The “fold loss of TLR7 agonist potency compared to Compound No. 63-00 (IMDQ)” value at TLR7 is on record as 2 fold. Moreover, at TLR8 (TNFα induction, human monocytes, 24 hours), a half-maximal response (EC50) required 522 nM. Besides, on TLR8 (less potent than IMDQ), the “fold loss of TLR8 agonist potency compared to Compound No. 63-00 (IMDQ)” value was found to be 2.4 fold.
